Source: patent US20160158245A1, “PHARMACEUTICAL FORMULATION CONTAINING THIENOTRIAZOLODIAZEPINE COMPOUNDS” (ONCOETHIX GmbH, priority 2013, published 2016)

What was measured:
Format in all cases: cell-based
[1] = test system: BRD4, BRD3 and c-MYC in RS4-11; assay: Immunoblot (protein level) in RS4-11; settings: RS4-11, 500 nM
Experimental: FIGS. 43A-43L illustrate effects of OTX015 at the protein level for BRD 4, BRD2 and BRD 3 as well as c-MYC. […] AML cell lines HL60, K562 (FIGS. 43A-43C; FIG. 43D-43F) and ALL cell lines Jurkat and RS4-11 (FIG. 43G-43I; FIG. 4JD-43L) were treated with OTX015 at 500 nM and compared to controls exposed to according DMSO. At indicated time-points proteins were extracted and immunoblotted with BRD4, BRD3, BRD2 or c-MYC antibodies after gel electrophoresis. […] One representative experiment out of three is shown.
The membranes were blocked with LiCor blocking buffer (LiCor, Lincoln, Nebr., USA) and incubated with the respective primary antibody: anti-BRD4 (Epitomics 5716-1, Burlingame, USA), anti-BRD3 (ab56342, AbCam, UK), anti-BRD2 (ab37633, AbCam, UK), anti c-MYC (sc-764 (N262), Santa Cruz, USA) and anti-GAPDH (Invitrogen 398600, Grand Island, USA). Blots were stained with either goat anti-rabbit InfraRedDye 680RD or goat anti-mouse InfraRedDye 800CWsecondary antibody (LiCor). Membranes were imaged using a LiCor Odyssey scanner. Boxes were manually placed around each band of interest, which returned near-infrared fluorescent values of raw intensity with intra-lane background subtracted using Odyssey 3.0 analytical software (LiCor).

Jurkat = assay: MTT assay; settings: Homo sapiens, MTT at 72 h
Experimental: (§1) Different representative cell lines for ALL including Jurkat cells (T-ALL), RS 4-11 (MLL-AF4 B-precursor ALL), TO′M-1, BV173 (both Ph+ALL) and AML including K562 (Ph+CML in blast crisis,), HL-60 (NRAS driven AML2), NOMO1 (MLL-AF9 driven AML), KG1 (BMP-FGRF+AML6) and its more immature subtype KG1a were cultured in RPMI 1640 (Gibco Invitrogen, Basel, Switzerland) supplemented with 10% or 20% heat-inactivated fetal calf serum respectively, 2 mM L-glutamine, 100 IU/mL penicillin, and 100 µg/mL streptomycin.
(§2) MTT-assay: cells were seeded first into 24-well plates at the density of […] per well to avoid variations of concentrations in smaller volumes and treated with different doses of OTX015 prepared freshly from 1 mM stock solution in DMSO. Cells were transferred to 96-well plates for MTT-assay. Untreated cells and cells treated with equal amounts of DMSO (0.2-1%) used for dilution of OTX015 were used as controls. The 3-(4,5-dimethylthiazol-2-yl)-2,5-diphenyltetrazolium bromide (MTT) (Molecular Probes, Eugene, USA) was prepared as a stock of 5 mg/ml in PBS. 0.5 mg/mL of MTT solution was then added per well and incubated in the dark at 37° C. for 4 h. Cells were then lysed with 25% SDS lysis buffer and absorbance was read at 570 nm. Two independent experiments were run for each cell line. GI50 values were calculated with Prism v5 software (GraphPad Inc., La Jolla, USA).
(§3) AML and ALL cell lines were exposed to increasing concentrations of compound (1-1), (0.1 nM-10 μM). […] GI50 values were expressed as means from 3 independent experiments.

K562 = assay: MTT assay; settings: Homo sapiens, K562, 72 h, K562, MTT at 72 h
Experimental: as §1, §2, §3

TOM-1 = assay: MTT assay; settings: TOM-1, MTT at 72 h
Experimental: as §1, §2, §3

KG1a = assay: MTT assay; settings: Homo sapiens, KG-1a, MTT at 72 h
Experimental: as §1, §2, §3

NOMO1 = assay: MTT assay; settings: Homo sapiens, NOMO-1; NOMO1, MTT at 72 h
Experimental: as §1, §2, §3

HL60 = assay: MTT assay; settings: Homo sapiens, HL-60, HL60, MTT at 72 h
Experimental: as §1, §2, §3

BV-173 = assay: MTT assay; settings: Homo sapiens; BV-173, MTT at 72 h
Experimental: as §1, §2, §3

KG1 = assay: MTT assay; settings: Homo sapiens, KG-1; KG1, MTT at 72 h
Experimental: as §1, §2, §3

RS4-11 = assay: MTT assay; settings: Homo sapiens; RS4-11, MTT at 72 h
Experimental: as §1, §2, §3

CD34+ cord blood cells = assay: Apoptosis in primary cells; settings: CD34+ cord blood cells of healthy controls, 500 nM, 24 hours
Experimental: (§4) a total of 1×10^6 cellsderived from patients or cell lines were resuspended in 1 mL culture medium and incubated with the indicated dosages of OTX015 prepared freshly from 1 mM stock solution in DMSO. Control cells were incubated with the corresponding amount of dimethyl sulfoxide (DMSO 0.2-1%) to exclude toxicity of the excipient. Apoptotic cells were detected by cytofluorometric analysis using a FACScan (Becton Dickinson, Mountain View, USA). Cells were stained with propidium iodide (PI; 5 μg/mL; Becton Dickinson) and concomitantly for 15 minutes at RT with annexin-V-FITC (Becton Dickinson) according to the manufacturer's instructions to determine outer membrane phosphatidyl serine exposure. Data were analyzed with the Flowjo (Tree Star Inc., Ashland, USA) flow cytometry software.
(§5) The efficacy of Compound (1-1) to induce apoptosis in primary cells was investigated. CD34+ and CD34− cells were obtained by positive selection with CD34+ microbeads from cord blood (healthy controls) and one AML patient.

CD34− cord blood cells = assay: Apoptosis in primary cells; settings: CD34− cord blood cells of healthy controls, 24 hours
Experimental: as §4, §5

[2] = test system: CD34+ and CD34− AML cells; assay: Apoptosis in primary cells; settings: CD34+ and CD34− cells of one AML patient, 24 hours
Experimental: as §4, §5

Cc1sc2c(c1C)C(c1ccc(Cl)cc1)=N[C@@H](CC(=O)Nc1ccc(O)cc1)c1nnc(C)n1-2 [Compound (1-1), 2-[(6S)-4-(4-chlorophenyl)-2,3,9-trimethyl-6H-thienol[3,2-f]-[1,2,4]triazolo[4,3-a][1,4]diazepin-6-yl]-N-(4-hydroxyphenyl)acetamide dihydrate]
BRD4, BRD3 and c-MYC protein level [1]: remained unaffected | GI50 (Jurkat): 250 nM | GI50 (K562): 11300 nM | GI50 (K562; mean of 3 independent experiments): 11300 nM | GI50 (TOM-1): 133 nM | GI50 (KG1a): 1340 nM | IC50 (KG1a; read-out: GI value): 1300 nM | GI50 (NOMO1): 229 nM | GI50 (HL60): 1310 nM | IC50 (HL60; read-out: GI value): 1300 nM | GI50 (BV-173): 161 nM | GI50 (KG1): 198 nM | GI50 (RS4-11): 34.2 nM | toxicity (apoptosis) for immature cord blood cells (CD34+ cord blood cells): toxicity for immature CD34+ cells at the 500 nM dose level | toxicity (apoptosis) for mature cord blood compartment (CD34− cord blood cells): remained unaffected | in vitro induction of apoptosis [2]: induction of apoptosis in a dose dependent manner
